Measured values taken from US6015829A, “1-phenylpyrazole compounds and medicinal application thereof” (Yoshitomi Pharmaceutical Industries, ltd., priority 1996, dated 2000).

Tested on: uric acid value of mouse serum
Assay: Lowering of Uric Acid Value of Mouse Serum
Assay type: in vivo
Details: male ICR mice, 0.3 mg/kg into the stomach
Description: Lowering of Uric Acid Value of Mouse Serum
A sample suspended in 0.5% aqueous hydroxypropyl methyl cellulose (HPMC) solution was forcibly administered into the stomach of 4 to 6 week-old male ICR mice (4 per group) in a dose of 0.3 mg/kg using an oral sound probe. At 2 and 6 hours after the administration of the sample, mice were anesthetized with halothane. Blood samples were taken from both carotid arteries and the mice were exsanguinated. The blood was stood at room temperature for 20-30 minutes and centrifuged at 2000×g for 15 minutes to give serum. The uric acid value was measured using a uric acid measurement kit (manufactured by Wako Pure Chemicals Co.) by phosphotungstic acid method. The obtained values were applied to the following formula to give uric acid value decrease percentage at 2 and 6 hours after the administration of the sample.
Uric acid value decrease (%)=(1-average uric acid value of group administered with sample/average uric acid value of group administered with HPMC)×100

Oc1ncnc2[nH]ncc12 [allopurinol]
Uric acid value decrease (%) at 2 hours (2 hours after administration): 33%
Uric acid value decrease (%) at 6 hours (6 hours after administration): 14%
